Test results published in publication PMC9116245, “New 1,2,3-triazole linked ciprofloxacin-chalcones induce DNA damage by inhibiting human topoisomerase I& II and tubulin polymerization” (Journal of Enzyme Inhibition and Medicinal Chemistry, 2022).

Experiments:
Format in all cases: cell-based
[1] = test system: A549/ATCC; assay: NCI one-dose screen; conditions: Homo sapiens, read-out: Growth Percent
Procedure: (§1) For screening of anticancer properties, all the developed compounds were chosen by the (NCI) for in-vitro antitumor evaluation. The assay was carried out using 59 human cancer cell lines obtained from nine tumour subpanels (breast, ovarian, melanoma, leukaemia, renal, CNS, lung, prostate, and colon cancer cell lines). Compounds were assessed at a 10 µM concentration. […] Also, hybrids 4a, 4b, 4e, 4i and 4j produced significant anti-proliferative effect in several cancer cells, particularly in leukaemia (RPMI-8226) and colon (HCT116) cells with growth percent of 47.87, −14.59, −24.56, −24.42, −15.84, −9.74, −53.36, −10.26, −31.29, and −39.51%, respectively.
(§2) The method description for NCI anticancer screening is provided in detail in the standard NCI-60 testing protocol.

[2] = test system: CAKI-1; assay: NCI one-dose screen; conditions: Homo sapiens; CAKI-1, 10 µM; read-out: Growth Percent
Procedure: as §1, §2

[3] = test system: DU-145; assay: NCI one-dose screen; conditions: Homo sapiens; DU-145, 10 µM; read-out: Growth Percent
Procedure: as §1, §2

[4] = test system: EKVX; assay: NCI one-dose screen; conditions: Homo sapiens, read-out: Growth Percent
Procedure: as §1, §2

[5] = test system: HCC-2998; assay: NCI one-dose screen; conditions: Homo sapiens; HCC-2998, 10 µM; read-out: Growth Percent
Procedure: as §1, §2

[6] = test system: HCT-15; assay: NCI one-dose screen; conditions: Homo sapiens; HCT-15, 10 µM; read-out: Growth Percent
Procedure: as §1, §2

[7] = test system: HOP-62; assay: NCI one-dose screen; conditions: Homo sapiens; HOP-62, 10 µM; read-out: Growth Percent
Procedure: as §1, §2

[8] = test system: HOP-92; assay: NCI one-dose screen; conditions: Homo sapiens; HOP-92, 10 µM; read-out: Growth Percent
Procedure: as §1, §2

[9] = test system: HS 578T; assay: NCI one-dose screen; conditions: Homo sapiens, read-out: Growth Percent
Procedure: as §1, §2

[10] = test system: HT29; assay: NCI one-dose screen; conditions: Homo sapiens, HT-29; HT29, 10 µM; read-out: Growth Percent
Procedure: as §1, §2

[11] = test system: IGROV1; assay: NCI one-dose screen; conditions: Homo sapiens, IGROV-1; IGROV1, 10 µM; read-out: Growth Percent
Procedure: as §1, §2

[12] = test system: K-562; assay: NCI one-dose screen; conditions: Homo sapiens, K562; K-562, 10 µM; read-out: Growth Percent
Procedure: as §1, §2

[13] = test system: M14; assay: NCI one-dose screen; conditions: Homo sapiens; M14, 10 µM; read-out: Growth Percent
Procedure: as §1, §2

[14] = test system: NCI-H23; assay: NCI one-dose screen; conditions: Homo sapiens; NCI-H23, 10 µM; read-out: Growth Percent
Procedure: as §1, §2

[15] = test system: NCI-H460; assay: NCI one-dose screen; conditions: Homo sapiens; NCI-H460, 10 µM; read-out: Growth Percent
Procedure: as §1, §2

[16] = test system: NCI-H522; assay: NCI one-dose screen; conditions: Homo sapiens; NCI-H522, 10 µM; read-out: Growth Percent
Procedure: as §1, §2

[17] = test system: OVCAR-3; assay: NCI one-dose screen; conditions: Homo sapiens; OVCAR-3, 10 µM; read-out: Growth Percent
Procedure: as §1, §2

[18] = test system: OVCAR-4; assay: NCI one-dose screen; conditions: Homo sapiens; OVCAR-4, 10 µM; read-out: Growth Percent
Procedure: as §1, §2

[19] = test system: OVCAR-5; assay: NCI one-dose screen; conditions: Homo sapiens; OVCAR-5, 10 µM; read-out: Growth Percent
Procedure: as §1, §2

[20] = test system: OVCAR-8; assay: NCI one-dose screen; conditions: Homo sapiens; OVCAR-8, 10 µM; read-out: Growth Percent
Procedure: as §1, §2

[21] = test system: PC-3; assay: NCI one-dose screen; conditions: Homo sapiens; PC-3, 10 µM; read-out: Growth Percent
Procedure: as §1, §2

[22] = test system: RXF 393; assay: NCI one-dose screen; conditions: Homo sapiens; RXF 393, 10 µM; read-out: Growth Percent
Procedure: as §1, §2

[23] = test system: SF-539; assay: NCI one-dose screen; conditions: Homo sapiens; SF-539, 10 µM; read-out: Growth Percent
Procedure: as §1, §2

[24] = test system: SK-MEL-28; assay: NCI one-dose screen; conditions: Homo sapiens; SK-MEL-28, 10 µM; read-out: Growth Percent
Procedure: as §1, §2

[25] = test system: SK-OV-3; assay: NCI one-dose screen; conditions: Homo sapiens; SK-OV-3, 10 µM; read-out: Growth Percent
Procedure: as §1, §2

[26] = test system: SN12C; assay: NCI one-dose screen; conditions: Homo sapiens, read-out: Growth Percent
Procedure: as §1, §2

[27] = test system: SNB-19; assay: NCI one-dose screen; conditions: Homo sapiens; SNB-19, 10 µM; read-out: Growth Percent
Procedure: as §1, §2

[28] = test system: SNB-75; assay: NCI one-dose screen; conditions: Homo sapiens; SNB-75, 10 µM; read-out: Growth Percent
Procedure: as §1, §2

[29] = test system: TK-10; assay: NCI one-dose screen; conditions: Homo sapiens; TK-10, 10 µM; read-out: Growth Percent
Procedure: as §1, §2

[30] = test system: UACC-257; assay: NCI one-dose screen; conditions: Homo sapiens; UACC-257, 10 µM; read-out: Growth Percent
Procedure: as §1, §2

[31] = test system: UACC-62; assay: NCI one-dose screen; conditions: Homo sapiens; UACC-62, 10 µM; read-out: Growth Percent
Procedure: as §1, §2

[32] = test system: 59 human cancer cell lines; assay: NCI one-dose screen, whole panel; conditions: Homo sapiens, mean over the panel, read-out: Mean Growth Percent
Procedure: as §1, §2

[33] = test system: Caco-2; assay: MTT assay; conditions: Homo sapiens; Caco-2, MTT assay, 24 h incubation
Procedure: (§3) The proliferation of colorectal cancer cells (HCT116, HT29 and Caco-2) was assessed using MTT assay as previously reported. Cells were treated with increasing concentrations of 1, 5, 10, 20, 40, 80 or 100 µM of CP hybrids 4a-j, doxorubicin, or DMSO. See Supplementary Appendix A.

[34] = test system: HCT116; assay: MTT assay; conditions: Homo sapiens, HCT-116, 24 h incubation
Procedure: as §3

[35] = test system: HT-29; assay: MTT assay; conditions: Homo sapiens; HT-29, MTT assay, 24 h incubation
Procedure: as §3

Row | Compound | activity at 10 µM [1] | activity at 10 µM [2] | activity at 10 µM [3] | activity at 10 µM [4] | activity at 10 µM [5] | activity at 10 µM [6] | activity at 10 µM [7] | activity at 10 µM [8] | activity at 10 µM [9] | activity at 10 µM [10] | activity at 10 µM [11] | activity at 10 µM [12] | activity at 10 µM [13] | activity at 10 µM [14] | activity at 10 µM [15] | activity at 10 µM [16] | activity at 10 µM [17] | activity at 10 µM [18] | activity at 10 µM [19] | activity at 10 µM [20] | other results
1 | O=C(/C=C/c1ccc(F)cc1)c1ccc(-n2cc(CN3CCN(c4cc5c(cc4F)c(=O)c(C(=O)O)cn5C4CC4)CC3)nn2)cc1 [Compound 4e, (E)-1-cyclopropyl-6-fluoro-7–(4-((1–(4-(3-(4-fluorophenyl)acryloyl)phenyl)-1H-1,2,3-triazol-4-yl)methyl)piperazin-1-yl)-4-oxo-1,4-dihydroquinoline-3-carboxylic acid] | 82.2% | 36.9% | 51.6% | 87.5% | 79.3% | 63.4% | 67.3% | 50.3% | 57.5% | 28% | 39.6% | 21.9% | 60.9% | 80.3% | 32.5% | 48.5% | 46.6% | 93.1% | 84.2% | 23.3% | activity at 10 µM [21]: 57.4%; activity at 10 µM [22]: 45%; activity at 10 µM [23]: 27.9%; activity at 10 µM [24]: 68%; activity at 10 µM [25]: 71.6%; activity at 10 µM [26]: 8.77%; activity at 10 µM [27]: 31.6%; activity at 10 µM [28]: 68.1%; activity at 10 µM [29]: 85.2%; activity at 10 µM [30]: 88.3%; activity at 10 µM [31]: 55.8%; activity at 10 µM [32]: 53.9%; IC50 [33]: 4.19 ± 1.13 µM; IC50 [34]: 4.32 ± 0.98 µM; IC50 [35]: 8.67 ± 2.94 µM
2 | Cc1ccc(/C=C/C(=O)c2ccc(-n3cc(CN4CCN(c5cc6c(cc5F)c(=O)c(C(=O)O)cn6C5CC5)CC4)nn3)cc2)cc1 [Compound 4f, (E)-1-cyclopropyl-6-fluoro-4-oxo-7-(4-((1-(4-(3-(p-tolyl)acryloyl)phenyl)-1H-1,2,3-triazol-4-yl)methyl)piperazin-1-yl)-1,4-dihydroquinoline-3-carboxylic acid] | 87.3% | 64.4% | 78.9% | 90.7% | 98.5% | 95% | 87.4% | 84.6% | 83.6% | 91.7% | 74.2% | 51.5% | 87% | 85.4% | 85.8% | 78.3% | 95.9% | 91.4% | 99.5% | 79% | activity at 10 µM [21]: 82%; activity at 10 µM [22]: 88.4%; activity at 10 µM [23]: 83%; activity at 10 µM [24]: 107%; activity at 10 µM [25]: 78.4%; activity at 10 µM [26]: 44.9%; activity at 10 µM [27]: 86.9%; activity at 10 µM [28]: 93.6%; activity at 10 µM [29]: 91.4%; activity at 10 µM [30]: 95.8%; activity at 10 µM [31]: 83%; activity at 10 µM [32]: 80.3%; IC50 [33]: 10.1 ± 2.82 µM; IC50 [34]: 7.22 ± 1.45 µM; IC50 [35]: 14.7 ± 1.81 µM
3 | COc1ccc(/C=C/C(=O)c2ccc(-n3cc(CN4CCN(c5cc6c(cc5F)c(=O)c(C(=O)O)cn6C5CC5)CC4)nn3)cc2)cc1 [Compound 4g, (E)-1-Cyclopropyl-6-fluoro-7-(4-((1-(4-(3-(4-methoxyphenyl)acryloyl)phenyl)-1H-1,2,3-triazol-4-yl)methyl)piperazin-1-yl)-4-oxo-1,4-dihydroquinoline-3-carboxylic acid] | 89% | 75.5% | 90.8% | 96.6% | 90.7% | 95.8% | 85.5% | 84.8% | 65.3% | 78.2% | 59% | 67.5% | 88.7% | 85.4% | 82.2% | 79.1% | 90.5% | 94.4% | 100% | 83.6% | activity at 10 µM [21]: 89%; activity at 10 µM [22]: 75%; activity at 10 µM [23]: 92.8%; activity at 10 µM [24]: 85.3%; activity at 10 µM [25]: 84.6%; activity at 10 µM [26]: 58.2%; activity at 10 µM [27]: 84.1%; activity at 10 µM [28]: 91.6%; activity at 10 µM [29]: 92.4%; activity at 10 µM [30]: 91.7%; activity at 10 µM [31]: 74.6%; activity at 10 µM [32]: 78.8%; IC50 [33]: 11.4 ± 3.19 µM; IC50 [34]: 6.11 ± 1.03 µM; IC50 [35]: 34 ± 3.69 µM
4 | CN(C)c1ccc(/C=C/C(=O)c2ccc(-n3cc(CN4CCN(c5cc6c(cc5F)c(=O)c(C(=O)O)cn6C5CC5)CC4)nn3)cc2)cc1 [Compound 4h, (E)-1-cyclopropyl-7–(4-((1–(4-(3-(4-(dimethylamino)phenyl)acryloyl)phenyl)-1H-1,2,3-triazol-4-yl)methyl)piperazin-1-yl)-6-fluoro-4-oxo-1,4-dihydroquinoline-3-carboxylic acid] | 93.5% | 69.8% | 96.3% | 96% | 92.4% | 97.6% | 81.3% | 76.2% | 80.5% | 98.9% | 69.9% | 86% | 87.4% | 81.5% | 89.7% | 88.6% | 96% | 94.8% | 109% | 62.5% | activity at 10 µM [21]: 89.6%; activity at 10 µM [22]: 70.9%; activity at 10 µM [23]: 73.6%; activity at 10 µM [24]: 100%; activity at 10 µM [25]: 84.7%; activity at 10 µM [26]: 67.7%; activity at 10 µM [27]: 86.4%; activity at 10 µM [28]: 70.8%; activity at 10 µM [29]: 104%; activity at 10 µM [30]: 101%; activity at 10 µM [31]: 77.6%; activity at 10 µM [32]: 82%; IC50 [33]: 6.39 ± 1.41 µM; IC50 [34]: 5.09 ± 2.74 µM; IC50 [35]: 21.7 ± 2.74 µM
